Measured values from paper PMC7377239, “Cardiovascular Effects of Polychlorinated Biphenyls and Their Major Metabolites” (Environmental Health Perspectives, 2020).
Like-named read-outs stand apart in the source and are kept apart here.

Experiments:
HUVECs = experiment: High-content imaging cytotoxicity in HUVECs, 24 h; type: cell-based, human; conditions: Homo sapiens, HUVEC, 24 h, HUVECs; for viability at 0.01 µM / activity at 0.01 µM / viability at 0.1 µM / activity at 0.1 µM / viability at 1 µM / activity at 1 µM / viability at 10 µM / activity at 10 µM / viability at 100 µM / activity at 100 µM: 0.00 µM = 100.00; for viability at 0.1 µM / activity at 0.1 µM: 0.10 µM; for minimal effective concentration: top concentration 100.00 µM
How it was run: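 Read-out: multiwavelength high-content imaging of Hoechst 33342, MitoTracker Orange and calcein AM after 24 h compound exposure of confluent HUVEC monolayers. POD values were set using a one-SD cutoff from vehicle (0.5% DMSO) means; with no concentration–response, 100μM was assigned as no observable adverse effect level.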

[1] = system: iCell endothelial cells (human iPSC-derived ECs); experiment: High-content imaging cytotoxicity in iCell endothelial cells, 24 h; type: cell-based; conditions: Homo sapiens, Endothelial cell, iPSC-EC, 24 hr; for viability at 0.1 µM / activity at 0.1 µM: 0.10 µM; for minimal effective concentration: top concentration 100.00 µM
How it was run: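 Readouts were vehicle-normalised and fitted to a four-parameter logistic model. POD was set at one SD beyond 0.5% DMSO control means, and 100 µM was assigned when no response was seen. Cells were monolayers of iCell endothelial cells imaged after 24 h compound exposure using nuclear, mitochondrial and calcein dyes.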

[2] = 24 hr, read-out: huvec.cyto.24hr
[3] = 24 hr, read-out: huvec.mito.24hr
[4] = 24 hr, read-out: huvec.mitoint.24hr
[5] = 24 hr, read-out: huvec.nma.24hr
[6] = 24 hrs, read-out: huvec.tc.24hrs
[7] = 0.00 µM control = 100.00, read-out: endo.cyto.24hr
[8] = 0.00 µM control = 100.00, read-out: endo.mito.24hr
[9] = 0.00 µM control = 100.00, read-out: endo.mitoint.24hr
[10] = 0.00 µM control = 100.00, read-out: endo.nma.24hr
[11] = 0.00 µM control = 100.00, read-out: endo.tc.24hrs

Clc1ccc(Cl)c(-c2cc(Cl)ccc2Cl)c1 [PCB52]
viability at 0.01 µM (HUVECs; [2]): 94.7% | activity at 0.01 µM (HUVECs; [3]): 94.8% | activity at 0.01 µM (HUVECs; [4]): 107% | activity at 0.01 µM (HUVECs; [5]): 101% | viability at 0.1 µM (HUVECs; [2]): 97.3% | activity at 0.1 µM (HUVECs; [3]): 96.5% | activity at 0.1 µM (HUVECs; [4]): 116% | activity at 0.1 µM (HUVECs; [5]): 97.7% | viability at 1 µM (HUVECs; [2]): 92.5% | activity at 1 µM (HUVECs; [3]): 92% | activity at 1 µM (HUVECs; [4]): 106% | activity at 1 µM (HUVECs; [5]): 100% | viability at 10 µM (HUVECs; [2]): 66.8% | activity at 10 µM (HUVECs; [3]): 60% | activity at 10 µM (HUVECs; [4]): 55.7% | activity at 10 µM (HUVECs; [5]): 74.2% | viability at 100 µM (HUVECs; [2]): 45% | activity at 100 µM (HUVECs; [3]): 20.7% | activity at 100 µM (HUVECs; [4]): 14.1% | activity at 100 µM (HUVECs; [5]): 49.2% | minimal effective concentration (HUVECs; 24 hr, read-out: huvec.cyto.24hr POD): 0.67 µM | minimal effective concentration (HUVECs; 24 hr, read-out: huvec.mito.24hr POD): 0.57 µM | minimal effective concentration (HUVECs; 24 hr, read-out: huvec.mitoint.24hr POD): 6.01 µM | minimal effective concentration (HUVECs; 24 hr, read-out: huvec.nma.24hr POD): 4.97 µM | viability at 0.01 µM (HUVECs; [6]): 94.7% | viability at 0.1 µM (HUVECs; [6]): 97.3% | viability at 1 µM (HUVECs; [6]): 92.5% | viability at 10 µM (HUVECs; [6]): 66.8% | viability at 100 µM (HUVECs; [6]): 45% | minimal effective concentration (HUVECs; 24 hrs, read-out: huvec.tc.24hrs POD): 0.67 µM | viability at 0.01 µM [1, 7]: 100% | activity at 0.01 µM [1, 8]: 99.8% | activity at 0.01 µM [1, 9]: 92.8% | activity at 0.01 µM [1, 10]: 103% | viability at 0.01 µM [1, 11]: 100% | viability at 0.1 µM [1, 7]: 98.4% | activity at 0.1 µM [1, 8]: 97.7% | activity at 0.1 µM [1, 9]: 87.4% | activity at 0.1 µM [1, 10]: 103% | viability at 0.1 µM [1, 11]: 98.4% | viability at 1 µM [1, 7]: 97.6% | activity at 1 µM [1, 8]: 97.5% | activity at 1 µM [1, 9]: 92% | activity at 1 µM [1, 10]: 100% | viability at 1 µM [1, 11]: 97.6% | viability at 10 µM [1, 7]: 99.3% | activity at 10 µM [1, 8]: 99.4% | activity at 10 µM [1, 9]: 86.3% | activity at 10 µM [1, 10]: 101% | viability at 10 µM [1, 11]: 99.3% | viability at 100 µM [1, 7]: 97.2% | activity at 100 µM [1, 8]: 97.4% | activity at 100 µM [1, 9]: 83.6% | activity at 100 µM [1, 10]: 100% | viability at 100 µM [1, 11]: 97.2% | minimal effective concentration ([1]; read-out: endo.cyto.24hr POD): 100 µM | minimal effective concentration ([1]; read-out: endo.mito.24hr POD): 100 µM | minimal effective concentration ([1]; read-out: endo.mitoint.24hr POD): 100 µM | minimal effective concentration ([1]; read-out: endo.nma.24hr POD): 100 µM | minimal effective concentration ([1]; read-out: endo.tc.24hrs POD): 100 µM
